Experimental data published in patent publication US5196453A, “Crystalline deoxyspergualin, process for its preparation and suppository containing the same” (priority 1989, dated 1993).
Where “and” joins values, the source holds several entries; their conditions need not be identical. Identical values can stand only once. Counter-ions that a name gives are not always drawn. Like-named read-outs stand apart in the source and are kept apart here.

Legend:
[1] = Heat stability: undecomposed substance by HPLC after storage at 50° C. for 6 days; format: physicochemical
Method: To evaluate the heat stability of α-form crystals of deoxyspergualin hydrochloride in comparison with that of the powder, samples were stored at 50° C. for 6 days and were analyzed by high-pressure liquid chromatography (HPLC), and the amount of undecomposed substance was measured.
To evaluate the heat stability of β-form crystals of deoxyspergualin hydrochloride in comparison with that of the powder, samples were stored at 50° C. for 6 days, and analyzed by HPLC to measure the amount of undecomposed substance.
To evaluate the heat stability of the Powder A in comparison with those of α-form crystals and β-form crystals of the above-identified application, samples were stored at 50° C. for 6 days and then analyzed by HPLC to measure the amount of undecomposed substance.

[2] = Hygroscopicity: change in weight after storage at different RH (%) for 24 hrs; format: physicochemical; settings: for Deliquescence (in words): RH of 64%
Method: To evaluate the hygroscopicity of the powder and α-form crystals of deoxyspergualin hydrochloride, the change of the weight of each sample was measured after storage in different RH (%) for 24 hrs. To evaluate the hygroscopicity of the powder and β-form crystals of deoxyspergualin hydrochloride, the change in the weight of each sample was measured after storage in different RH (%) for 24 hrs. The hygroscopicity each of the Powder A and α-form crystals and β-form crystals of the above-identified application was evaluated by measuring the change in weight after storage in various RH(%) for 24 hrs.

| Amount of undecomposed substance [1] [%] | Increase in weight ([2]; RH 31%) [%] | Increase in weight ([2]; RH 43%) [%] | Increase in weight ([2]; RH 52%) [%] | Increase in weight ([2]; RH 64%) [%] | Amount of undecomposed substance ([1]; trihydrochloride, 8640 min) | Increase in weight ([2]; RH 14%) [%] | Increase in weight ([2]; RH 31%, trihydrochloride) | Increase in weight ([2]; RH 43%, trihydrochloride) | Increase in weight ([2]; RH 52%, trihydrochloride) | Increase in weight ([2]; RH 64%, trihydrochloride) | Increase in weight ([2]; RH 76%, trihydrochloride) [%] | Deliquescence (in words) ([2]; trihydrochloride) | Water absorption (in words) ([2]; RH of 52% or below) | Structure (SMILES) |
| --- | --- | --- | --- | --- | --- | --- | --- | --- | --- | --- | --- | --- | --- | --- |
| 59.7 | 5.0 | 6.3 | 7.4 | 13.2 | – | – | – | – | – | – | – | – | – | Cl.Cl.Cl.N=C(N)NCCCCCCC(=O)NC(O)C(=O)NCCCCNCCCN (centres unmarked) [Powder A, N-[4-(3-aminopropyl)aminobutyl]-2-(7-guanidinoheptanamido)-2-hydroxyethanamide trihydrochloride, reference compound] |
| – | – | – | – | – | 89.8% and 83% | 1.5 | 5.9% | 9.1% | 12.6% | 17.9% | 28.3 | deliquesced | – | N=C(N)NCCCCCCC(=O)NC(O)C(=O)NCCCCNCCCN (centres unmarked) [Powder, N-[4-(3-aminopropyl)aminobutyl]-2-(7-guanidinoheptanamide)-2-hydroxyethanamide trihydrochloride, reference compound] |
| – | – | – | – | – | 100.1% and 100.0% | – | -0.6% and -0.8% | -0.4% | -0.1% and -0.2% | 15.2% and 17.8% | – | – | did not absorb water | N=C(N)NCCCCCCC(=O)NC(O)C(=O)NCCCCNCCCN (stereo not drawn) [α-form crystals, N-[4-(3-aminopropyl)aminobutyl]-2-(7-guanidinoheptanamide)-2-hydroxyethanamide trihydrochloride] |
| – | – | – | – | – | 100.6% and 100.2% | – | 1.7% and 1.2% | 2.6% and 2.1% | 3.8% and 3.0% | 7.3% and 6.1% | 14.0 | did not deliquesce | – | N=C(N)NCCCCCCC(=O)NC(O)C(=O)NCCCCNCCCN (stereo not drawn) [β-form crystals, N-[4-(3-aminopropyl)aminobutyl]-2-(7-guanidinoheptanamide)-2-hydroxyethanamide trihydrochloride] |
